This note sets out measurements from patent publication US9255090B2, “Heterocyclyl derivatives and their use as prostaglandin D2 receptor modulators” (Actelion Pharmaceuticals Ltd., priority 2012, dated 2016).

This assay addresses hCRTH2 receptor (Homo sapiens (Human), UniProt Q9Y5Y4). Put plainly: hCRTH2 receptor membranes radioligand (3H-PGD2) displacement assay. The class given is binding. The following applies: 3H-PGD2 radioligand displacement, HEK293-hCRTH2 membranes. In outline:
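HEK293-hCRTH2 membranes, 20 μg/well; 3H-PGD2 added at 2.5 nM; binding buffer 50 mM Tris, 10 mM MnCl2, 1 mM EDTA, pH 7.0; 90 min RT; GF/C filtration, scintillation count. Nonspecific binding: PGD2 at […].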
Background: Loss of bound radioactivity is the signal in a displacement assay; it reports binding, not function.

Sequence of hCRTH2 receptor (Q9Y5Y4 whole entry): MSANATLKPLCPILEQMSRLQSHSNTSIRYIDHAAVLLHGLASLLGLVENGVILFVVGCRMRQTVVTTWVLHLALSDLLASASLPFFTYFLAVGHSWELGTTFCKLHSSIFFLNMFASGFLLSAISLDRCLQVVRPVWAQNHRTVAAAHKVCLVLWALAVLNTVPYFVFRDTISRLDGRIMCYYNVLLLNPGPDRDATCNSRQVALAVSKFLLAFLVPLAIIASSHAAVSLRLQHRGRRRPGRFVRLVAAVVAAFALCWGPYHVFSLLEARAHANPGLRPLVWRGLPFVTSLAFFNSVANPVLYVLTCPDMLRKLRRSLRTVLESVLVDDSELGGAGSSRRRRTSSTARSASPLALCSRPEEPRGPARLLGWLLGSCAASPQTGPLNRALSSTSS

For `O=C(O)COc1cccc(-c2ccc(F)c3c2CN(C(=O)OCc2ccccc2)CC3)c1` [Example 175, 8-(3-Carboxymethoxy-phenyl)-5-fluoro-3,4-dihydro-1H-isoquinoline-2-carboxylic acid benzyl ester], the IC50 (usually the concentration that inhibits the measured activity by half) worked out at 0.117 µM.
Consider `CCOc1cc(CC(=O)O)ccc1-c1ccc(F)c2c1CN(C(=O)NCc1ccccc1Cl)CC2` [Example 444, {4-[2-(2-Chloro-benzylcarbamoyl)-5-fluoro-1,2,3,4-tetrahydro-isoquinolin-8-yl]-3-ethoxy-phenyl}-acetic acid], for which the IC50 came out at 0.002 µM.
To `O=C(O)Cc1ccc(-c2ccc(F)c3c2CN(C(=O)OCc2ccccc2)CC3)cc1` [Example 41, 8-(4-Carboxymethyl-phenyl)-5-fluoro-3,4-dihydro-1H-isoquinoline-2-carboxylic acid benzyl ester] belongs 0.0449 µM; to `CCOc1cc(CC(=O)O)ccc1-c1ccc(F)c2c1CN(C(=O)CCc1ccccc1F)CC2` [Example 317, (3-Ethoxy-4-{5-fluoro-2-[3-(2-fluoro-phenyl)-propionyl]-1,2,3,4-tetrahydro-isoquinolin-8-yl}-phenyl)-acetic acid], 0.0017 µM.
With `COc1ccc(CC(=O)O)cc1-c1ccc(F)c2c1CN(C(=O)CCn1cc(C)c3ccccc31)CC2` [Example 57, (3-{5-Fluoro-2-[3-(3-methyl-indol-1-yl)-propionyl]-1,2,3,4-tetrahydro-isoquinolin-8-yl}-4-methoxy-phenyl)-acetic acid], the 50% inhibitory concentration (IC50) was determined as 0.0162 µM.
`C[C@@H](CC(=O)N1CCc2c(F)ccc(-c3ccc(CC(=O)O)cc3OCC(F)(F)F)c2C1)c1ccccc1` [Example 287, [4-[5-Fluoro-2-((S)-3-phenyl-butyryl)-1,2,3,4-tetrahydro-isoquinolin-8-yl]-3-(2,2,2-trifluoro-ethoxy)-phenyl]-acetic acid]: the IC50 stood at 0.0081 µM.
Compound `COc1ccc2onc(CC(=O)N3CCc4c(F)ccc(-c5cc(CC(=O)O)ccc5OC)c4C3)c2c1` [Example 49, (3-{5-Fluoro-2-[2-(5-methoxy-benzo[d]isoxazol-3-yl)-acetyl]-1,2,3,4-tetrahydro-isoquinolin-8-yl}-4-methoxy-phenyl)-acetic acid] displayed an IC50 of 0.054 µM.
Take `O=C(O)Cc1ccc(-c2ccc(F)c3c2CN(C(=O)OCc2ccccc2)CC3)c(F)c1` [Example 164, 8-(4-Carboxymethyl-2-fluoro-phenyl)-5-fluoro-3,4-dihydro-1H-isoquinoline-2-carboxylic acid benzyl ester]: the IC50 stood at 0.0473 µM.
For the compound `CCOc1cc(CC(=O)O)ccc1-c1ccc(F)c2c1CN(C(=O)C1CCc3cccc(OC)c3C1)CC2` (racemic) [Example 325], the half-maximal inhibitory concentration (IC50) came out at 0.0018 µM.
For `COc1ccc(CC(=O)O)cc1-c1ccc(F)c2c1CCN(C(=O)OCc1ccccc1)C2` [Example 159, 5-(5-Carboxymethyl-2-methoxy-phenyl)-8-fluoro-3,4-dihydro-1H-isoquinoline-2-carboxylic acid benzyl ester], the 50% inhibitory concentration (IC50) came to 0.594 µM.
In turn, `CCOc1cc(CC(=O)O)ccc1-c1ccc(F)c2c1CN(C(=O)CC(C)c1cccc(C)n1)CC2` (racemic) [Example 320] showed an IC50 of 0.0117 µM.
Compound `O=C(O)Cc1cc(F)cc(-c2ccc(F)c3c2CN(C(=O)OCc2ccccc2)CC3)c1` [Example 14, 8-(3-Carboxymethyl-5-fluoro-phenyl)-5-fluoro-3,4-dihydro-1H-isoquinoline-2-carboxylic acid benzyl ester] yielded an IC50 of 0.0148 µM.
In turn, `CC(C)Oc1cc(CC(=O)O)ccc1-c1ccc(F)c2c1CN(C(=O)[C@@H]1C[C@H]1c1ccccc1)CC2` [Example 357, {4-[5-Fluoro-2-((1R,2R)-2-phenyl-cyclopropanecarbonyl)-1,2,3,4-tetrahydro-isoquinolin-8-yl]-3-isopropoxy-phenyl}-acetic acid] gave a half-maximal inhibitory concentration (IC50) of 0.0016 µM.
Regarding `COc1ccc(CC(=O)O)cc1-c1ccc(F)c2c1CN(C(=O)CC(c1ccccc1)c1ccc(Cl)cc1)CC2` (racemic) [Example 97, (±)-(3-{2-[3-(4-Chloro-phenyl)-3-phenyl-propionyl]-5-fluoro-1,2,3,4-tetrahydro-isoquinolin-8-yl}-4-methoxy-phenyl)-acetic acid], the IC50 came to 0.0481 µM.
To `CCOc1cc(CC(=O)O)ccc1-c1ccc(F)c2c1CN(C(=O)O[C@H](C)c1ccccc1)CC2` [Example 385, 8-(4-Carboxymethyl-2-ethoxy-phenyl)-5-fluoro-3,4-dihydro-1H-isoquinoline-2-carboxylic acid (R)-1-phenyl-ethyl ester] belongs 0.0358 µM; to `COc1ccc(CC(=O)O)cc1-c1ccc(F)c2c1CN(C(=O)C1CCOc3ccccc31)CC2` (racemic) [Example 272], 0.262 µM.
Under `COc1ccc(CC(=O)O)cc1-c1ccc(F)c2c1CN(C(=O)CCCc1ccccc1)CC2` [Example 117, {3-[5-Fluoro-2-(4-phenyl-butyryl)-1,2,3,4-tetrahydro-isoquinolin-8-yl]-4-methoxy-phenyl}-acetic acid] stands 0.00541 µM.
To `O=C(O)COc1ccc(Cl)c(-c2ccc(F)c3c2CN(C(=O)OCc2ccccc2)CC3)c1` [Example 176, 8-(5-Carboxymethoxy-2-chloro-phenyl)-5-fluoro-3,4-dihydro-1H-isoquinoline-2-carboxylic acid benzyl ester] belongs 0.0136 µM.
In turn, `CCOc1cc(CC(=O)O)ccc1-c1ccc(F)c2c1CN(C(=O)NCCc1ccccc1)CC2` [Example 443, [3-Ethoxy-4-(5-fluoro-2-phenethylcarbamoyl-1,2,3,4-tetrahydro-isoquinolin-8-yl)-phenyl]-acetic acid] gave a half-inhibitory concentration (IC50) of 0.0181 µM.
To `CCOc1cc(CC(=O)O)ccc1-c1ccc(F)c2c1CN(C(=O)NCc1ccccc1OC)CC2` [Example 445, {3-Ethoxy-4-[5-fluoro-2-(2-methoxy-benzylcarbamoyl)-1,2,3,4-tetrahydro-isoquinolin-8-yl]-phenyl}-acetic acid] belongs 0.0025 µM; to `CC(C)Oc1cc(CC(=O)O)ccc1-c1ccc(F)c2c1CN(C(=O)C[C@H](C)c1ccccc1)CC2` [Example 355, {4-[5-Fluoro-2-((S)-3-phenyl-butyryl)-1,2,3,4-tetrahydro-isoquinolin-8-yl]-3-isopropoxy-phenyl}-acetic acid], 0.0103 µM; to `CCOc1cc(CC(=O)O)ccc1-c1ccc(F)c2c1CN(C(=O)OCc1ncc(C)cc1F)CC2` [Example 387, 8-(4-Carboxymethyl-2-ethoxy-phenyl)-5-fluoro-3,4-dihydro-1H-isoquinoline-2-carboxylic acid 3-fluoro-5-methyl-pyridin-2-ylmethyl ester], 0.008 µM.
Compound `COc1ccc(CC(=O)O)cc1-c1c(F)cc(F)c2c1CN(C(=O)[C@@H]1C[C@H]1c1ccccc1)CC2` [Example 38, {3-[5,7-Difluoro-2-((1R,2R)-2-phenyl-cyclopropanecarbonyl)-1,2,3,4-tetrahydro-isoquinolin-8-yl]-4-methoxy-phenyl}-acetic acid] returned a half-inhibitory concentration (IC50) of 0.0112 µM.
Under `O=C(O)Cc1ccc(OCC(F)(F)F)c(-c2ccc(F)c3c2CN(C(=O)[C@@H]2C[C@H]2c2ccccc2)CC3)c1` [Example 426, [3-[5-Fluoro-2-((1R,2R)-2-phenyl-cyclopropanecarbonyl)-1,2,3,4-tetrahydro-isoquinolin-8-yl]-4-(2,2,2-trifluoro-ethoxy)-phenyl]-acetic acid] stands 0.0019 µM; under `O=C(O)Cc1ccc(-c2ccc(F)c3c2CN(C(=O)[C@@H]2C[C@H]2c2ccccc2)CC3)c(OCC(F)(F)F)c1` [Example 289, [4-[5-Fluoro-2-((1R,2R)-2-phenyl-cyclopropanecarbonyl)-1,2,3,4-tetrahydro-isoquinolin-8-yl]-3-(2,2,2-trifluoro-ethoxy)-phenyl]-acetic acid], 0.0014 µM.
In turn, `COc1ccc(CC(=O)O)cc1-c1ccc(F)c2c1CN(C(=O)[C@@H]1C[C@H]1c1cccc(Cl)c1)CC2` (racemic) [Example 4, (±)-(3-{2-[trans-2-(3-Chloro-phenyl)-cyclopropanecarbonyl]-5-fluoro-1,2,3,4-tetrahydro-isoquinolin-8-yl}-4-methoxy-phenyl)-acetic acid] displayed an IC50 of 0.00539 µM.
The compound `COc1ccc(CC(=O)O)cc1-c1ccc(F)c2c1CN(C(=O)/C=C/c1nc3ccccc3s1)CC2` [Example 88, {3-[2-((E)-3-Benzothiazol-2-yl-acryloyl)-5-fluoro-1,2,3,4-tetrahydro-isoquinolin-8-yl]-4-methoxy-phenyl}-acetic acid] displayed an IC50 of 0.00914 µM.
`CCOc1ccc(CC(=O)O)cc1-c1ccc(F)c2c1CN(C(=O)CC(C)c1ccccc1OC)CC2` (racemic) [Example 282] yielded a half-inhibitory concentration (IC50) of 0.0022 µM.
Take `COc1ccc(CC(=O)O)cc1-c1ccc(F)c2c1CN(C(=O)CC(C)c1cccnc1)CC2` (racemic) [Example 266, (±)-{3-[5-Fluoro-2-(3-pyridin-3-yl-butyryl)-1,2,3,4-tetrahydro-isoquinolin-8-yl]-4-methoxy-phenyl}-acetic acid formiate]: the IC50 came out at 0.0327 µM.
As to `COc1ccc(CC(=O)O)cc1-c1ccc(F)c2c1CCN(C(=O)OCc1ccccc1)CC2` [Example 17, 6-(5-Carboxymethyl-2-methoxy-phenyl)-9-fluoro-1,2,4,5-tetrahydro-benzo[d]azepine-3-carboxylic acid benzyl ester], the IC50 was 0.141 µM.
Turning to `COc1ccc(CC(=O)O)cc1-c1ccc(C(F)(F)F)c2c1CN(C(=O)C1CC1)CC2` [Example 82, [3-(2-Cyclopropanecarbonyl-5-trifluoromethyl-1,2,3,4-tetrahydro-isoquinolin-8-yl)-4-methoxy-phenyl]-acetic acid], the IC50 came out at 0.25 µM.
Under `C=C(C)CCOC(=O)N1CCc2c(F)ccc(-c3cc(CC(=O)O)ccc3OCC)c2C1` [Example 379, 8-(5-Carboxymethyl-2-ethoxy-phenyl)-5-fluoro-3,4-dihydro-1H-isoquinoline-2-carboxylic acid 3-methyl-but-3-enyl ester] stands 0.0025 µM.
